From US11129861B2, “Methods for treating inflammatory diseases” (OKCHUNDANG CO., LTD., priority 2017, dated 2021)
Marks after values point to notes of the source that are not given here.

Legend:
NH4OH exposured mice [1] = experiment: Antitussive assay: trachea and lung histopathology; format: in vivo; conditions: 50 mg/kg orally, 11 days
Protocol: SKOG were suspended in distilled water as 40, 20 and 10 mg/ml concentration, and orally administered in a volume of 10 ml/kg (as equivalence to 400, 200 and 100 mg/kg), once a day for 11 days before NH4OH exposure. In addition, AR and KOG were also suspended in distilled water as 40 mg/ml concentration, and orally administered in a volume of 10 ml/kg (as equivalence to 400, 200 and 100 mg/kg), once a day for 11 days before NH4OH exposure. TB was also dissolved in distilled water as 5 mg/ml concentrations, and also orally administered in a volume of 10 ml/kg (as equivalence to 50 mg/kg), once a day for 11 days before NH4OH exposure. In intact vehicle and NH4OH control mice, distilled water 10 ml/kg was orally administered, instead of AR, KOG, SKOG or TB to provide same restrain stresses, in the present experiment. After video image acquirement, some parts of individual lung (left lateral lobes) and trachea (3 mm from thyroid cartilages) were sampled and fixed in 10% neutral buffered formalin (NBF), and crossly trimmed. Then embedded in paraffin, sectioned (3˜4 μm) and stained with Hematoxylin and eosin (H&E) for general histopathology or toluidine blue for mast cells, and after that the histopathological profiles of each sample were observed under light microscope (Model Eclipse 80i, Nikon, Tokyo, Japan). […] The histopathologist was blinds to group distribution when this analysis was made, and at least five repeated measurements in same histological specimens prepared were considered to calculate each mean histomorphometrical value, whenever possible, in this histopathological evaluation (FIG. 4).

NH4OH exposured mice [2] = experiment: Antitussive assay: NH4OH-induced coughing responses; format: in vivo; conditions: 50 mg/kg orally, 11 days; compared with NH4OH control mice
Protocol: NH4OH treated mice: 34.17±1.32 g, ranged in 31.0-37.3 g), as follows. SKOG were suspended in distilled water as 40, 20 and 10 mg/ml concentration, and orally administered in a volume of 10 ml/kg (as equivalence to 400, 200 and 100 mg/kg), once a day for 11 days before NH4OH exposure. In addition, AR and KOG were also suspended in distilled water as 40 mg/ml concentration, and orally administered in a volume of 10 ml/kg (as equivalence to 400, 200 and 100 mg/kg), once a day for 11 days before NH4OH exposure. TB was also dissolved in distilled water as 5 mg/ml concentrations, and also orally administered in a volume of 10 ml/kg (as equivalence to 50 mg/kg), once a day for 11 days before NH4OH exposure. In intact vehicle and NH4OH control mice, distilled water 10 ml/kg was orally administered, instead of AR, KOG, SKOG or TB to provide same restrain stresses, in the present experiment. Coughing was induced by single inhalation of 25% NH4OH (Sigma-Aldrich, St. […] Individual intact vehicle control mouse was exposured to 0.3 ml of saline contained 1,000 ml glass Erlenmeyer flask for 45 sec, instead of NH4OH, in this experiment. The criteria to define cough in mice is that opening the mouth accompanying sound of coughing, contraction of thoracic and abdomen muscles, and a jerking of the front body.

[3] = system: xylene topically applied mice; experiment: Anti-inflammatory assay: ear histopathology; format: in vivo; conditions: 50 mg/kg orally, 11 days; xylene topically applied mice
Protocol: AR, KOG and SKOG were orally administered as same as antitussive and expectorant assays, once a day for 11 days before xylene topical applications. In addition, DEXA-water soluble granules were dissolved indistilled water as 1.5 mg/ml concentrations (0.1 mg/ml based on DEXA itself), and also orally administered in a volume of 10 ml/kg (as equivalence to 1 mg/kg based on DEXA itself), once a day for 11 days before xylene topical applications. In intact vehicle and xylene control mice, distilled water 10 ml/kg was orally administered, instead of AR, KOG, SKOG or DEXA to provide same restrain stresses, in the present experiment.
Acute inflammations were induced by single topical application of 0.03 ml of xylene (Duksan Pure Chemical Co. Ltd., Ansan, Korea) to the anterior surface of the right ear at 1 hour after last 11th test substance administration, as described previously with some modifications. Equal volume of saline was topically applied in intact vehicle mouse ears, instead of xylene, in our experiment.
After ear weight measurement, individual ear samples were fixed in 10% NBF, and crossly trimmed. Then embedded in paraffin, sectioned (3˜4 μm) and stained with Hematoxylin and eosin (H&E) for general histopathology or toluidine blue for mast cells, and after that the histopathological profiles of each sample were observed under light microscope. To more detail changes, mean total, epidermis and dermis thicknesses of the ear anterior surface, numbers of infiltrated inflammatory cells and mast cells on the dermis of ear (cells/mm^2), collagen occupied region percentages on the dermis (%/mm2) were analyzed using a computer assisted image analysis program, according to previously established methods, respectively. The histopathologist was blinds to group distribution when this analysis was made, and at least five repeated measurements in same histological specimens prepared were considered to calculate each mean histomorphometrical value, whenever possible, in this histopathological evaluation.

[4] = Body weight measurements, antitussive assay; format: in vivo, mice; conditions: 50 mg/kg orally
Protocol: One-hundred thirty two 6-week male SPF/VAF CrljOri:CD1 [ICR] mice (OrientBio, Seungnam, Korea; body weight ranged in 29-32 g upon receipt) were prepared, and eight groups of 10 mice each were selected based on the body weights at 7 days after acclimatization based on the body weights (intact control: 34.30±1.74 g, ranged in 31.8-37.0 g; NH4OH treated mice: 34.17±1.32 g, ranged in 31.0-37.3 g), as follows.
SKOG were suspended in distilled water as 40, 20 and 10 mg/ml concentration, and orally administered in a volume of 10 ml/kg (as equivalence to 400, 200 and 100 mg/kg), once a day for 11 days before NH4OH exposure. In addition, AR and KOG were also suspended in distilled water as 40 mg/ml concentration, and orally administered in a volume of 10 ml/kg (as equivalence to 400, 200 and 100 mg/kg), once a day for 11 days before NH4OH exposure. TB was also dissolved in distilled water as 5 mg/ml concentrations, and also orally administered in a volume of 10 ml/kg (as equivalence to 50 mg/kg), once a day for 11 days before NH4OH exposure. In intact vehicle and NH4OH control mice, distilled water 10 ml/kg was orally administered, instead of AR, KOG, SKOG or TB to provide same restrain stresses, in the present experiment.
Changes of body weight were measured at once a day from 1 day before initial to end of last 11th oral administration of AR, KOG, SKOG or TB using an automatic laboratory animal weighing electronic balance (Precisa Instrument, Dietikon, Switzland). Animals were overnight fasted (about 18 hours, water was not restricted) before initial test substance administration and sacrifice to reduced individual differences from feeding, and also to reduce the individual body weight differences at start of experiment, the body weight gains during 11 days of oral administration of AR, KOG, SKOG or TB were calculated as follow Equation [1], in the current experiment. Body weight gains during 11 days of oral administration of test substances[B−A]=Body weights at last administration[B]−Body weights at first administration[A] Equation [1]

[5] = compared with NH4OH control mice

Cn1cnc2c1c(=O)[nH]c(=O)n2C [TB, theobromine]
Cells Inflammatory (trachea) (NH4OH exposured mice [1]; NH4OH exposured mice): 167.40 ± 40.26^hi Numbers/mm^2
Cells Mast (trachea) (NH4OH exposured mice [1]; NH4OH exposured mice): 14.30 ± 4.60^hi Numbers/mm^2
Diameter of lumen (trachea) (NH4OH exposured mice [1]; NH4OH exposured mice): 860.11 ± 100.75^ac μm
Thickness Epithelium (trachea) (NH4OH exposured mice [1]; NH4OH exposured mice): 24.21 ± 4.36^hi μm
Thickness Submucosa (trachea) (NH4OH exposured mice [1]; NH4OH exposured mice): 47.31 ± 11.39^hi μm
Thickness Total wall (trachea) (NH4OH exposured mice [1]; NH4OH exposured mice): 191.23 ± 10.24^hi μm
Alveolar surface area (NH4OH exposured mice [1]; NH4OH exposured mice, lung): 51.13 ± 5.95^ac %
Septum thickness (NH4OH exposured mice [1]; NH4OH exposured mice, lung): 30.53 ± 10.06^gh μm
inflammatory cells (alveolar septum) (NH4OH exposured mice [1]; NH4OH exposured mice, lung): 492.00 ± 114.18^gh numbers/mm^2
Mean ASA, change (NH4OH exposured mice [1]; [5]): 65.26%
Mean diameters of trachea lumen, change (NH4OH exposured mice [1]; [5]): 30.60%
Mean numbers of infiltrated inflammatory cells on the alveolar septum, change (NH4OH exposured mice [1]; [5]): −73.92%
Mean numbers of infiltrated inflammatory cells on the trachea, change (NH4OH exposured mice [1]; [5]): −62.74%
Mean numbers of infiltrated mast cells on the trachea, change (NH4OH exposured mice [1]; [5]): −63.05%
Mean thicknesses of alveolar septum, change (NH4OH exposured mice [1]; [5]): −57.84%
Mean thicknesses of trachea epithelium, change (NH4OH exposured mice [1]; [5]): −35.48%
Mean thicknesses of trachea submucosa, change (NH4OH exposured mice [1]; [5]): −47.27%
Mean thicknesses of trachea wall, change (NH4OH exposured mice [1]; [5]): −13.23%
Mean numbers of coughing responses during 6 min after 45 sec exposure of NH4OH, change (NH4OH exposured mice [2]): −59.04%
Cells Inflammatory (ear dermis) [3]: 10.10 ± 10.54^fh Numbers/mm^2
Cells Mast (ear dermis) [3]: 61.30 ± 12.65^c Numbers/mm^2
Collagen fiber [3]: 77.43 ± 12.79^h %/mm^2 of dermis
Thickness Dermis (ear) [3]: 52.33 ± 13.72^h μm
Thickness Epidermis (ear) [3]: 8.50 ± 1.65 μm
Thickness Total (ear) [3]: 99.55 ± 9.57^h μm
Body weight gains (g) [B − A] ([4]; 11 days, NH4OH exposured mice): 1.71 ± 0.97 g
Body weights (g) at test material administration First [A] ([4]; 11 days, NH4OH exposured mice): 29.23 ± 1.49 g
Body weights (g) at test material administration Last [B] ([4]; 11 days, NH4OH exposured mice): 30.94 ± 1.77 g
body weight gains during 11 days, change [4, 5]: 2.40%
